Laboratory results from ChEMBL document CHEMBL1201862, “PubChem BioAssay data set” (2004).
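Values below derive from 48-hour exposures of cells grown in 96-well plates, with endpoints linearly interpolated between the two concentrations bracketing the appropriate inhibition level. GI50 is the concentration that inhibits growth by half.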 The source made the active and inactive calls. No stated cut-off is given here; in the data, active = GI50 up to about 1.1 µM and inactive = higher.

Key:
Experiment in all cases: inhibition of tumour cell growth, NCI panel, 48 h
786-0 = system: 786-0
A549 = system: A549
CAKI-1 = system: CAKI-1
HOP-18 = system: HOP-18
HOP-62 = system: HOP-62
HOP-92 = system: HOP-92
HT-29 = system: HT-29
IGROV-1 = system: IGROV-1
OVCAR-4 = system: OVCAR-4
OVCAR-8 = system: OVCAR-8
SF-268 = system: SF-268
SK-MEL-2 = system: SK-MEL-2
SR = system: SR
SW-620 = system: SW-620
U-251 = system: U-251
COLO 205 = system: COLO 205

Question: What does the source list for `CCc1cccc(C)c1NC(=O)C(=O)CC(=O)c1ccc(Cl)s1`?
Answer: GI50 (786-0): > 100 µM (inactive); GI50 (A549): > 100 µM (inactive); GI50 (CAKI-1): > 100 µM (inactive); GI50 (HOP-18): > 100 µM (inactive); GI50 (HOP-62): > 100 µM (inactive); GI50 (HOP-92): > 100 µM (inactive); GI50 (HT-29): > 100 µM (inactive); GI50 (IGROV-1): > 100 µM (inactive); GI50 (OVCAR-4): > 100 µM (inactive); GI50 (OVCAR-8): > 100 µM (inactive); GI50 (SF-268): > 100 µM (inactive); GI50 (SK-MEL-2): > 100 µM (inactive); GI50 (SR): > 100 µM (inactive); GI50 (SW-620): > 100 µM (inactive); GI50 (U-251): > 100 µM (inactive)

Question: What does the source list for `C#CCN(N=O)C(=O)NCCCCC(NC(C)=O)C(=O)NCc1ccccc1` (stereo not given)?
Answer: GI50 (786-0): > 100 µM (inactive); GI50 (A549): > 100 µM (inactive); GI50 (CAKI-1): > 100 µM (inactive); GI50 (COLO 205): > 100 µM (inactive); GI50 (HOP-18): > 100 µM (inactive); GI50 (HOP-62): > 100 µM (inactive); GI50 (HOP-92): > 100 µM (inactive); GI50 (HT-29): > 100 µM (inactive); GI50 (IGROV-1): > 100 µM (inactive); GI50 (OVCAR-4): > 100 µM (inactive); GI50 (OVCAR-8): > 100 µM (inactive); GI50 (SF-268): > 100 µM (inactive); GI50 (SR): 53 µM (inactive); GI50 (SW-620): > 100 µM (inactive); GI50 (U-251): > 100 µM (inactive)

Question: How did the GI50 (786-0) turn out when `COc1ccc(NCc2cc(OC)cc(OC)c2)cc1` was run?
Answer: The GI50 was 48.1 µM (inactive).

Question: And the GI50 (A549)?
Answer: The GI50 was 17.6 µM (inactive).

Question: And the GI50 (CAKI-1)?
Answer: The GI50 was 9.75 µM (inactive).

Question: And the GI50 (COLO 205)?
Answer: The GI50 was 9.33 µM (inactive).

Question: And the GI50 (HOP-18)?
Answer: The GI50 was > 42.7 µM (inactive).

Question: What about the GI50 (HOP-62) of the same compound?
Answer: Its GI50 is 8.53 µM (inactive).

Question: And the GI50 (HOP-92)?
Answer: The GI50 was 78.5 µM (inactive).

Question: What about the GI50 (HT-29) of the same compound?
Answer: The GI50 was 6.7 µM (inactive).

Question: And the GI50 (IGROV-1)?
Answer: The GI50 was 22.5 µM (inactive).

Question: What about the GI50 (OVCAR-4) of the same compound?
Answer: The GI50 was 18.5 µM (inactive).

Question: What about the GI50 (OVCAR-8) of the same compound?
Answer: The GI50 was 49.1 µM (inactive).

Question: And the GI50 (SF-268)?
Answer: Its GI50 is 26 µM (inactive).

Question: What about the GI50 (SK-MEL-2) of the same compound?
Answer: The GI50 was 7 µM (inactive).

Question: What about the GI50 (SR) of the same compound?
Answer: Its GI50 is 13.1 µM (inactive).

Question: And the GI50 (SW-620)?
Answer: Its GI50 is 8.32 µM (inactive).

Question: And the GI50 (U-251)?
Answer: Its GI50 is 24.4 µM (inactive).

Question: What does the source list for `CCc1cccc(C)c1NC(=S)NC(=O)c1ccccc1C(=O)NC(=S)Nc1c(C)cccc1CC`?
Answer: GI50 (786-0): > 100 µM (inactive); GI50 (A549): 90.4 µM (inactive); GI50 (CAKI-1): 56.2 µM (inactive); GI50 (COLO 205): 61.1 µM (inactive); GI50 (HOP-18): 50.7 µM (inactive); GI50 (HOP-62): > 100 µM (inactive); GI50 (HOP-92): 19.1 µM (inactive); GI50 (HT-29): 43 µM (inactive); GI50 (IGROV-1): 93.8 µM (inactive); GI50 (OVCAR-4): 69.3 µM (inactive); GI50 (OVCAR-8): 95.1 µM (inactive); GI50 (SF-268): > 100 µM (inactive); GI50 (SK-MEL-2): > 100 µM (inactive); GI50 (SR): 38.4 µM (inactive); GI50 (SW-620): 75.3 µM (inactive); GI50 (U-251): 67.6 µM (inactive)

Question: Which results are given for `COC1CCC2C(=O)CCCC2O1` (stereo not given)?
Answer: GI50 (786-0): > 100 µM (inactive); GI50 (A549): > 100 µM (inactive); GI50 (CAKI-1): > 100 µM (inactive); GI50 (COLO 205): > 100 µM (inactive); GI50 (HOP-18): > 100 µM (inactive); GI50 (HOP-62): > 100 µM (inactive); GI50 (HOP-92): > 100 µM (inactive); GI50 (HT-29): > 100 µM (inactive); GI50 (IGROV-1): > 100 µM (inactive); GI50 (OVCAR-4): > 100 µM (inactive); GI50 (OVCAR-8): > 100 µM (inactive); GI50 (SF-268): > 100 µM (inactive); GI50 (SK-MEL-2): > 100 µM (inactive); GI50 (SR): > 100 µM (inactive); GI50 (SW-620): > 100 µM (inactive); GI50 (U-251): > 100 µM (inactive)

Question: Which GI50 (786-0) does the source give for `CSC(=S)N(C)NC(=O)c1cccc(C(=O)NN(C)C(=S)SC)n1` here?
Answer: The GI50 was 19.4 µM (inactive).

Question: What about the GI50 (A549) of the same compound?
Answer: The GI50 was 14.8 µM (inactive).

Question: What about the GI50 (COLO 205) of the same compound?
Answer: The GI50 was > 100 µM (inactive).

Question: And the GI50 (HOP-18)?
Answer: Its GI50 is 78.5 µM (inactive).

Question: And the GI50 (HOP-62)?
Answer: The GI50 was 17.1 µM (inactive).

Question: And the GI50 (HOP-92)?
Answer: Its GI50 is 21.5 µM (inactive).

Question: What about the GI50 (HT-29) of the same compound?
Answer: The GI50 was 3.06 µM (inactive).

Question: What about the GI50 (IGROV-1) of the same compound?
Answer: Its GI50 is 8.2 µM (inactive).

Question: What about the GI50 (OVCAR-4) of the same compound?
Answer: Its GI50 is 10.3 µM (inactive).

Question: What about the GI50 (OVCAR-8) of the same compound?
Answer: The GI50 was 21.8 µM (inactive).

Question: What about the GI50 (SF-268) of the same compound?
Answer: Its GI50 is 6.1 µM (inactive).

Question: What about the GI50 (SR) of the same compound?
Answer: The GI50 was 4.97 µM (inactive).

Question: And the GI50 (SW-620)?
Answer: The GI50 was 32.7 µM (inactive).

Question: And the GI50 (U-251)?
Answer: Its GI50 is 18.6 µM (inactive).

Question: Which results are given for `O=C(O)C1=C(O)C(C(=O)O)C23CCCCCCCCCCC12C(C(=O)O)C(O)=C3C(=O)O` (stereo not given)?
Answer: GI50 (786-0): > 100 µM (inactive); GI50 (A549): > 100 µM (inactive); GI50 (COLO 205): > 100 µM (inactive); GI50 (HOP-18): > 100 µM (inactive); GI50 (HOP-92): > 100 µM (inactive); GI50 (HT-29): > 100 µM (inactive); GI50 (IGROV-1): > 100 µM (inactive); GI50 (OVCAR-8): > 100 µM (inactive); GI50 (SF-268): > 100 µM (inactive); GI50 (SK-MEL-2): > 100 µM (inactive); GI50 (SR): > 100 µM (inactive); GI50 (SW-620): > 100 µM (inactive); GI50 (U-251): > 100 µM (inactive)

Question: Which GI50 (786-0) does the source give for `CC(C)CCCC(C)[C@H]1CCC2[C@H]3C(CC[C@@]21C)[C@@]1(C)CCC=C[C@]12C[C@@H]2[C@@H]3O` (stereo not given in full) here?
Answer: Its GI50 is > 100 µM (inactive).

Question: What about the GI50 (A549) of the same compound?
Answer: The GI50 was > 100 µM (inactive).

Question: And the GI50 (CAKI-1)?
Answer: Its GI50 is > 100 µM (inactive).

Question: What about the GI50 (COLO 205) of the same compound?
Answer: The GI50 was > 100 µM (inactive).

Question: And the GI50 (HOP-18)?
Answer: Its GI50 is > 100 µM (inactive).

Question: And the GI50 (HOP-62)?
Answer: Its GI50 is > 100 µM (inactive).

Question: What about the GI50 (HOP-92) of the same compound?
Answer: Its GI50 is > 100 µM (inactive).

Question: And the GI50 (HT-29)?
Answer: The GI50 was > 100 µM (inactive).

Question: What about the GI50 (IGROV-1) of the same compound?
Answer: The GI50 was > 100 µM (inactive).

Question: And the GI50 (OVCAR-4)?
Answer: The GI50 was > 100 µM (inactive).

Question: And the GI50 (OVCAR-8)?
Answer: The GI50 was > 100 µM (inactive).

Question: And the GI50 (SF-268)?
Answer: Its GI50 is > 100 µM (inactive).

Question: What about the GI50 (SR) of the same compound?
Answer: The GI50 was > 100 µM (inactive).

Question: What about the GI50 (SW-620) of the same compound?
Answer: Its GI50 is > 100 µM (inactive).

Question: What about the GI50 (U-251) of the same compound?
Answer: Its GI50 is > 100 µM (inactive).

Question: With `CN(C)CCNc1nc(-c2cccs2)cc(-c2cccs2)n1` as the compound, how does the GI50 (786-0) read?
Answer: The GI50 was 15.2 µM (inactive).

Question: What about the GI50 (A549) of the same compound?
Answer: Its GI50 is 15.6 µM (inactive).

Question: And the GI50 (CAKI-1)?
Answer: Its GI50 is > 10 µM (inactive).

Question: And the GI50 (COLO 205)?
Answer: The GI50 was 12.1 µM (inactive).

Question: And the GI50 (HOP-18)?
Answer: The GI50 was < 0.01 µM (active).

Question: And the GI50 (HOP-62)?
Answer: The GI50 was 18.7 µM (inactive).

Question: And the GI50 (HOP-92)?
Answer: The GI50 was 1.58 µM (inactive).

Question: What about the GI50 (HT-29) of the same compound?
Answer: The GI50 was 7.5 µM (inactive).

Question: What about the GI50 (IGROV-1) of the same compound?
Answer: The GI50 was 24.4 µM (inactive).

Question: What about the GI50 (OVCAR-4) of the same compound?
Answer: The GI50 was > 10 µM (inactive).

Question: What about the GI50 (OVCAR-8) of the same compound?
Answer: Its GI50 is 9.84 µM (inactive).

Question: And the GI50 (SK-MEL-2)?
Answer: Its GI50 is 16.8 µM (inactive).

Question: What about the GI50 (SR) of the same compound?
Answer: The GI50 was 2.84 µM (inactive).

Question: What about the GI50 (SW-620) of the same compound?
Answer: The GI50 was 13.9 µM (inactive).

Question: What about the GI50 (U-251) of the same compound?
Answer: The GI50 was 10.7 µM (inactive).
